Experimental data as given in patent US8796256B2 (Janssen Pharmaceutica NV, priority 2010, dated 2014).

Target: T1, ERR1 (also known as ERR-α or ERR-1) (Homo sapiens, UniProt P11474)
T1 sequence (P11474 193-421 limits assumed): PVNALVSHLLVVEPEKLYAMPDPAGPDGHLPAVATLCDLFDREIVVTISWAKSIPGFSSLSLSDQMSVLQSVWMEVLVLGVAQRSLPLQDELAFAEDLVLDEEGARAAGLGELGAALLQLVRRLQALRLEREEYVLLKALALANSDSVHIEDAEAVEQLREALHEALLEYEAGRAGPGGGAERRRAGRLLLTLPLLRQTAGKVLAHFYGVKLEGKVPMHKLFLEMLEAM
Test: TR-FRET assay (disruption of co-activator peptide binding to ERR1 LBD)
Format: biochemical
Conditions: 6 nM 6His-ERR1LBD, 6 nM GST-SRC-2 peptide; average of 3 independent experiments
In short: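 Homogeneous TR-FRET measuring displacement of GST-hSRC2 co-activator peptide (6 nM) from His-tagged ERR1 LBD (6 nM), detected with α-GST Eu cryptate (30 nM) and α-His-XL665 (7.5 nM). Buffer 25 mM Tris pH 8, 2.5 mM Hepes, 20 mM KCl, 1 mM DTT, 0.05 mg/mL delipidated BSA; equilibration 4-18 h at 25° C. Hyperbolic dose-response fit, mean of 3 experiments.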

| Compound | EC50 [µM] |
| --- | --- |
| O=C1S/C(=C\c2ccc3c(cnn3Cc3ccc(C(F)(F)F)cc3C(F)(F)F)c2)C(=O)N1C1CN2CCC1CC2 (stereo not shown) [Compound 63, (5Z)-3-(1-Azabicyclo[2.2.2]oct-3-yl)-5-({1-[2,4-bis(trifluoromethyl)benzyl]-1H-indazol-5-yl}methylidene)-1,3-thiazolidine-2,4-dione] | 0.02 |
| CC(=O)NS(=O)(=O)CN1C(=O)S/C(=C\c2ccc3c(cnn3Cc3ccc(F)cc3C(F)(F)F)c2)C1=O [Compound 64, N-({[(5Z)-5-({1-[4-Fluoro-2-(trifluoromethyl)benzyl]-1H-indazol-5-yl}methylidene)-2,4-dioxo-1,3-thiazolidin-3-yl)methyl}sulfonyl)acetamide] | 0.485 |
| O=C1OCCC1N1C(=O)S/C(=C\c2ccc3c(cnn3Cc3ccc(C(F)(F)F)cc3C(F)(F)F)c2)C1=O (stereo not shown) [Compound 65, (5Z)-5-({1-[2,4-Bis(trifluoromethyl)benzyl]-1H-indazol-5-yl}methylidene)-3-(2-oxotetrahydrofuran-3-yl)-1,3-thiazolidine-2,4-dione] | 0.05 |
| O=C1S/C(=C\c2ccc3c(cnn3Cc3ccc(C(F)(F)F)cc3C(F)(F)F)c2)C(=O)N1CCn1cncn1 [Compound 66, (5Z)-5-({1-[2,4-Bis(trifluoromethyl)benzyl]-1H-indazol-5-yl}methylidene)-3-[2-(1H-1,2,4-triazol-1-yl)ethyl]-1,3-thiazolidine-2,4-dione] | 0.016 |
| O=C1S/C(=C\c2ccc3c(cnn3Cc3ccc(C(F)(F)F)cc3C(F)(F)F)c2)C(=O)N1C1CCNCC1 [Compound 67, (5Z)-5-({1-[2,4-Bis(trifluoromethyl)benzyl]-1H-indazol-5-yl}methylidene)-3-piperidin-4-yl-1,3-thiazolidine-2,4-dione] | 0.62 |
| NS(=O)(=O)CN1C(=O)S/C(=C\c2ccc3c(cnn3Cc3ccc(C(F)(F)F)cc3C(F)(F)F)c2)C1=O [Compound 68] | 0.124 |
| CN1CCC[C@H]1CN1C(=O)S/C(=C\c2ccc3c(cnn3Cc3ccc(C(F)(F)F)cc3C(F)(F)F)c2)C1=O [Compound 69, (5Z)-5-({1-[2,4-Bis(trifluoromethyl)benzyl]-1H-indazol-5-yl}methylidene)-3-{[(2S)-1-methylpyrrolidin-2-yl]methyl}-1,3-thiazolidine-2,4-dione] | 0.023 |
| O=C(O)C1CC(N2C(=O)S/C(=C\c3ccc4c(cnn4Cc4ccc(C(F)(F)F)cc4C(F)(F)F)c3)C2=O)C1 (stereo not shown) [Compound 70, 3-[(5Z)-5-({1-[2,4-Bis(trifluoromethyl)benzyl]-1H-indazol-5-yl}methylidene)-2,4-dioxo-1,3-thiazolidin-3-yl]cyclobutanecarboxylic acid] | 0.048 |
| CC(=O)NS(=O)(=O)CN1C(=O)S/C(=C\c2ccc3c(cnn3Cc3ccc(C(F)(F)F)cc3C(F)(F)F)c2)C1=O [Compound 71, N-({[(5Z)-5-({1-[2,4-Bis(trifluoromethyl)benzyl]-1H-indazol-5-yl}methylidene)-2,4-dioxo-1,3-thiazolidin-3-yl]methyl}sulfonyl)acetamide] | 0.087 |
| O=C1S/C(=C\c2ccc3c(cnn3Cc3ccc(Cl)cc3C(F)(F)F)c2)C(=O)N1CCN1CCCC(F)C1 (stereo not shown) [Compound 74, (5Z)-5-({1-[4-Chloro-2-(trifluoromethyl)benzyl]-1H-indazol-5-yl}methylidene)-3-[2-(3-fluoropiperidin-1-yl)ethyl]-1,3-thiazolidine-2,4-dione] | 0.11 |
| O=C1S/C(=C\c2ccc3c(cnn3Cc3ccc(Cl)cc3C(F)(F)F)c2)C(=O)N1CCN1CC(F)(F)C1 [Compound 75, (5Z)-5-({1-[4-Chloro-2-(trifluoromethyl)benzyl]-1H-indazol-5-yl}methylidene)-3-[2-(3,3-difluoroazetidin-1-yl)ethyl]-1,3-thiazolidine-2,4-dione] | 0.127 |
| NC1CCCC(N2C(=O)S/C(=C\c3ccc4c(cnn4Cc4ccc(Cl)cc4C(F)(F)F)c3)C2=O)C1 (stereo not shown) [Compound 76, (5Z)-3-(3-Aminocyclohexyl)-5-({1-[4-chloro-2-(trifluoromethyl)benzyl]-1H-indazol-5-yl}methylidene)-1,3-thiazolidine-2,4-dione] | 0.014 |
| O=C1S/C(=C\c2ccc3c(cnn3Cc3ccc(Cl)cc3C(F)(F)F)c2)C(=O)N1C1CCCNCC1 (stereo not shown) [Compound 77, (5Z)-3-Azepan-4-yl-5-({1-[4-chloro-2-(trifluoromethyl)benzyl]-1H-indazol-5-yl}methylidene)-1,3-thiazolidine-2,4-dione] | 0.028 |
| O=C1S/C(=C\c2ccc3c(cnn3Cc3ccc(Cl)cc3C(F)(F)F)c2)C(=O)N1CCN1C[C@@H]2C[C@H]1CN2 [Compound 78, (5Z)-5-({1-[4-Chloro-2-(trifluoromethyl)benzyl]-1H-indazol-5-yl}methylidene)-3-[2-(1S,4S)-(2,5-diazabicyclo[2.2.1]hept-2-yl)ethyl]-1,3-thiazolidine-2,4-dione] | 0.041 |
| C[C@@H](N)CN1C(=O)S/C(=C\c2ccc3c(cnn3Cc3ccc(C(F)(F)F)cc3C(F)(F)F)c2)C1=O [Compound 80, (5Z)-3-[(2R)-2-Aminopropyl]-5-({1-[2,4-bis(trifluoromethyl)benzyl]-1H-indazol-5-yl}methylidene)-1,3-thiazolidine-2,4-dione] | 0.041 |
| C[C@H](N)CN1C(=O)S/C(=C\c2ccc3c(cnn3Cc3ccc(C(F)(F)F)cc3C(F)(F)F)c2)C1=O [Compound 81, (5Z)-3-[(2S)-2-Aminopropyl]-5-({1-[2,4-bis(trifluoromethyl)benzyl]-1H-indazol-5-yl}methylidene)-1,3-thiazolidine-2,4-dione] | 0.051 |
| O=C1S/C(=C\c2ccc3c(cnn3Cc3ccc(C(F)(F)F)cc3C(F)(F)F)c2)C(=O)N1C[C@H]1CCCN1 [Compound 82, (5Z)-5-({1-[2,4-Bis(trifluoromethyl)benzyl]-1H-indazol-5-yl}methylidene)-3-[(2R)-pyrrolidin-2-ylmethyl]-1,3-thiazolidine-2,4-dione] | 0.081 |
| O=C1S/C(=C\c2ccc3c(cnn3Cc3ccc(C(F)(F)F)cc3C(F)(F)F)c2)C(=O)N1C[C@@H]1CCCN1 [Compound 83, (5Z)-5-({1-[2,4-Bis(trifluoromethyl)benzyl]-1H-indazol-5-yl}methylidene)-3-[(2S)-pyrrolidin-2-ylmethyl]-1,3-thiazolidine-2,4-dione] | 0.082 |
| O=C1S/C(=C\c2ccc3c(cnn3Cc3ccc(C(F)(F)F)cc3C(F)(F)F)c2)C(=O)N1CCN1CCCC1 [Compound 84, (5Z)-5-({1-[2,4-Bis(trifluoromethyl)benzyl]-1H-indazol-5-yl}methylidene)-3-(2-pyrrolidin-1-ylethyl)-1,3-thiazolidine-2,4-dione] | 0.58 |
| O=C1S/C(=C\c2ccc3c(cnn3Cc3ccc(Cl)cc3C(F)(F)F)c2)C(=O)N1Cc1c[nH]nn1 [Compound 85, (5Z)-5-({1-[4-Chloro-2-(trifluoromethyl)benzyl]-1H-indazol-5-yl}methylidene)-3-(1H-1,2,3-triazol-4-ylmethyl)-1,3-thiazolidine-2,4-dione] | 0.136 |
| Cc1nc(CN2C(=O)S/C(=C\c3ccc4c(cnn4Cc4ccc(Cl)cc4C(F)(F)F)c3)C2=O)n[nH]1 [Compound 86, (5Z)-5-({1-[4-Chloro-2-(trifluoromethyl)benzyl]-1H-indazol-5-yl}methylidene)-3-[(5-methyl-1H-1,2,4-triazol-3-yl)methyl]-1,3-thiazolidine-2,4-dione] | 0.089 |
| NS(=O)(=O)NC(=O)CN1C(=O)S/C(=C\c2ccc3c(cnn3Cc3ccc(C(F)(F)F)cc3C(F)(F)F)c2)C1=O [Compound 87, 2-[(5Z)-5-({1-[2,4-Bis(trifluoromethyl)benzyl]-1H-indazol-5-yl}methylidene)-2,4-dioxo-1,3-thiazolidin-3-yl]-N-sulfamoylacetamide] | 0.65 |
| CN(C)S(=O)(=O)NC(=O)CN1C(=O)S/C(=C\c2ccc3c(cnn3Cc3ccc(C(F)(F)F)cc3C(F)(F)F)c2)C1=O [Compound 88, 2-[(5Z)-5-({1-[2,4-Bis(trifluoromethyl)benzyl]-1H-indazol-5-yl}methylidene)-2,4-dioxo-1,3-thiazolidin-3-yl]-N-(dimethylsulfamoyl)acetamide] | 0.134 |
| O=C1S/C(=C\c2ccc3c(cnn3Cc3ccc(Cl)cc3C(F)(F)F)c2)C(=O)N1C1(C(=O)O)CC1 [Compound 89, 1-[(5Z)-5-({1-[4-Chloro-2-(trifluoromethyl)benzyl]-1H-indazol-5-yl}methylidene)-2,4-dioxo-1,3-thiazolidin-3-yl]cyclopropanecarboxylic acid] | 0.092 |
| O=C1S/C(=C\c2ccc3c(cnn3Cc3ccc(Cl)cc3C(F)(F)F)c2)C(=O)N1Cc1nc[nH]n1 [Compound 90, (5Z)-5-({1-[4-Chloro-2-(trifluoromethyl)benzyl]-1H-indazol-5-yl}methylidene)-3-(1H-1,2,4-triazol-3-ylmethyl)-1,3-thiazolidine-2,4-dione] | 0.028 |
| O=C1S/C(=C\c2ccc3c(cnn3Cc3ccc(Cl)cc3C(F)(F)F)c2)C(=O)N1Cc1nccs1 [Compound 92, (5Z)-5-({1-[4-Chloro-2-(trifluoromethyl)benzyl]-1H-indazol-5-yl}methylidine)-3-(1,3-thiazol-2-ylmethyl)-1,3-thiazolidine-2,4-dione] | 0.024 |
| O=C1S/C(=C\c2ccc3c(cnn3Cc3ccc(Cl)cc3C(F)(F)F)c2)C(=O)N1Cc1cscn1 [Compound 93] | 0.014 |
| O=C1S/C(=C\c2ccc3c(cnn3Cc3ccc(Cl)cc3C(F)(F)F)c2)C(=O)N1Cc1cncs1 [Compound 94, (5Z)-5-({1-[4-Chloro-2-(trifluoromethyl)benzyl]-1H-indazol-5-yl}methylidene)-3-(1,3-thiazol-5-ylmethyl)-1,3-thiazolidine-2,4-dione] | ≥ 10 |
